The assay has as its target T1, hCTR V283A (Homo sapiens, UniProt P30988, V283A).
T1 construct: expressed in transfected cells
T1 sequence (P30988 25-474 V283A): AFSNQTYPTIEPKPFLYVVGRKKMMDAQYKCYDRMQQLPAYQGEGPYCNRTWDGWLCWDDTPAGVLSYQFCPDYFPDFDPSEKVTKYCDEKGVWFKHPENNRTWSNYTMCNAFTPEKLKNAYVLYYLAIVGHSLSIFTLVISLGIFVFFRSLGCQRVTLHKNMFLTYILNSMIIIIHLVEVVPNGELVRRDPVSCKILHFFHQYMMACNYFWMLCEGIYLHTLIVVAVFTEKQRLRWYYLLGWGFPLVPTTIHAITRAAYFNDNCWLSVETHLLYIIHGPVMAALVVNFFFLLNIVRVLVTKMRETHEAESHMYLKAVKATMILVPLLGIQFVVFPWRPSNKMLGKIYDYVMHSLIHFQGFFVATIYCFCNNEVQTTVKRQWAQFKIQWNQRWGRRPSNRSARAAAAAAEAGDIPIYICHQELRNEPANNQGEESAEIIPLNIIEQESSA
The assay is described as follows: Heterologous whole cell competition binding. The note with it: heterologous competition of 125I-sCT(8-32), whole cells, mean ± S.E.M., SEM. The method, boiled down:
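Whole cells expressing each receptor mutant were incubated overnight with radioligand and competitor, after which unbound ligand was removed and bound radioactivity counted on a gamma counter. Inhibition values were corrected for radioligand occupancy by the Cheng-Prusoff equation and reported as pKi.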

The source of these data is paper PMC5908784, “Extracellular loops 2 and 3 of the calcitonin receptor selectively modify agonist binding and efficacy” (Biochemical Pharmacology, 2018).

Where a SMILES comes first, the peptide text is derived from it. Bridges are numbered along the chain shown (N, C = ends).

As a reminder, the Ki is a measure of affinity in units of concentration, obtained from inhibition or displacement. Higher therefore signals lower affinity.

In the case of `CSCC[C@H](NC(=O)CNC(=O)[C@H](CO)NC(=O)[C@H](Cc1ccccc1)NC(=O)[C@H](CCCNC(=N)N)NC(=O)[C@H](Cc1c[nH]cn1)NC(=O)[C@H](Cc1ccccc1)NC(=O)[C@H](CC(N)=O)NC(=O)[C@H](CC(N)=O)NC(=O)[C@H](CC(C)C)NC(=O)[C@H](CC(N)=O)NC(=O)[C@H](CCCNC(=N)N)NC(=O)[C@H](Cc1c[nH]c2ccccc12)NC(=O)[C@H](Cc1ccc(O)cc1)NC(=O)[C@H](C)NC(=O)[C@H](CO)NC(=O)[C@H](CC(C)C)NC(=O)[C@@H](NC(=O)[C@@H]1CSSC[C@H](N)C(=O)N[C@@H](CO)C(=O)N[C@@H](CC(N)=O)C(=O)N[C@@H](CC(C)C)C(=O)N[C@@H](CO)C(=O)N[C@@H]([C@@H](C)O)C(=O)N1)C(C)C)C(=O)NCC(=O)N[C@@H](Cc1ccccc1)C(=O)NCC(=O)N1CCC[C@H]1C(=O)N[C@@H](CCC(=O)O)C(=O)N[C@H](C(=O)N1CCC[C@H]1C(N)=O)[C@@H](C)O` [pCT] (H-CSNLSTCVLSAYWRNLNNFHRFSGMGFGPETP-NH2; disulfide 1-7), affinity was put at a Ki of 15.1 nM.
